Measured values taken from ChEMBL document CHEMBL6178019, “Discovery of CYP1A1 Inhibitors for Host-Directed Therapy against Sepsis” (J Med Chem, 2025).
Active and inactive are the calls of the source. The calls are words filed in the database; no cut-off is given here.

What was measured:
Acinetobacter baumannii = assay: Antibacterial activity against Acinetobacter baumannii assessed as inhibition of bacterial growth at 0.02 to 2.5 mg/ml; format: functional, organism-based; settings: dose 0.02-2.5 mg/ml
Staphylococcus aureus [1] = assay: Antibacterial activity against methicillin-resistant Staphylococcus aureus infected in C57BL/6 mouse assessed as reversal of blood urea nitrogen level in serum at 25 mg/kg, ip administered for 12 hrs by absorbance based microplate reader; format: functional, organism-based
RAW264.7 [2] = assay: Induction of phagocytosis in zymosan A stimulated mouse RAW264.7 cells assessed as upregulation of CD204 protein level at 5.0 uM incubated for 12 hrs by flow cytometric analysis; format: functional, cell-based
RAW264.7 [3] = assay: Induction of phagocytosis in zymosan A stimulated mouse RAW264.7 cells assessed as upregulation of CD68 mRNA expression at 5.0 uM incubated for 12 hrs by qRT-PCR analysis; format: functional, cell-based
[4] = Toxicity in male C57BL/6 mouse assessed as effect on creatinine level in serum up to 100 mg/kg, ip measured after 12 hrs; format: organism-based; settings: in vivo
Staphylococcus aureus [5] = assay: Antibacterial activity methicillin-resistant Staphylococcus aureus infected in C57BL/6 mouse model assessed as increase in survival at 25 mg/kg, ip preadministered for 12 hrs followed by bacterial infection and measured after 60 hrs by Kaplan Meier survival analysis; format: functional, organism-based; settings: time 72.0 hrs
RAW264.7 [6] = assay: Induction of phagocytosis in zymosan A stimulated mouse RAW264.7 cells assessed as upregulation of SR-A1 mRNA expression at 5.0 uM incubated for 12 hrs by qRT-PCR analysis; format: functional, cell-based
RAW264.7 [7] = assay: Induction of phagocytosis in mouse RAW264.7 cells assessed as upregulation of CD68 mRNA expression by qRT-PCR analysis; format: functional, cell-based
RAW264.7 [8] = assay: Induction of phagocytosis in zymosan A stimulated mouse RAW264.7 cells assessed as upregulation of CD32 mRNA expression at 5.0 uM incubated for 12 hrs by qRT-PCR analysis; format: functional, cell-based
Mus musculus = assay: Effect on CYP1A1 protein expression in C57BL/6 mouse liver infected with methicillin-resistant Staphylococcus aureus at 25 mg/kg, ip administered for 12 hrs by Western blot analysis; format: functional, organism-based
RAW264.7 [9] = assay: Induction of phagocytosis in mouse RAW264.7 cells assessed as upregulation of CD32 mRNA expression by qRT-PCR analysis; format: functional, cell-based
[10] = Toxicity in male C57BL/6 mouse assessed as effect on alanine transaminase (ALT) level in serum up to 100 mg/kg, ip measured after 12 hrs; format: organism-based; settings: in vivo
Escherichia coli = assay: Antibacterial activity Escherichia coli infected in C57BL/6 mouse model assessed as increase in survival rate at 25 mg/kg, ip incubated for 12 hrs followed by bacterial infection and measured after 100 hrs by Kaplan Meier survival analysis; format: functional, organism-based; settings: time 112.0 hrs
Staphylococcus aureus [11] = assay: Antibacterial activity against methicillin-resistant Staphylococcus aureus infected in C57BL/6 mouse model assessed as reduction in bacterial dissemination from PLF to kidney at 25 mg/kg, ip preadministered for 12 hrs followed by bacterial infection and measured after 24 hrs; format: functional, organism-based; settings: time 36.0 hrs
Staphylococcus aureus [12] = assay: Antibacterial activity against methicillin-resistant Staphylococcus aureus infected in CYP1A1 knockout mouse model assessed as increase in survival rate at 25 mg/kg, ip pretreated for 12 hrs followed by bacterial infection and measured after 60 hrs by Kaplan Meier survival analysis; format: functional, organism-based; settings: time 72.0 hrs
Staphylococcus aureus [13] = assay: Antibacterial activity against methicillin-resistant Staphylococcus aureus infected in C57BL/6 mouse model assessed as reversal of aspartate aminotransferase level in serum at 25 mg/kg, ip administered for 12 hrs by absorbance based microplate reader; format: functional, organism-based
Cytochrome P450 1A1 = molecular target: T1, Cytochrome P450 1A1 (Homo sapiens, UniProt P04798); assay: Inhibition of CYP1A1 in human Caco-2 cells assessed as relative activity by measuring fold change at 5.0 uM incubated for 12 hrs by EROD assay relative to control; format: cell-based; settings: caco-2, 12 h
T1 sequence (P04798 whole entry): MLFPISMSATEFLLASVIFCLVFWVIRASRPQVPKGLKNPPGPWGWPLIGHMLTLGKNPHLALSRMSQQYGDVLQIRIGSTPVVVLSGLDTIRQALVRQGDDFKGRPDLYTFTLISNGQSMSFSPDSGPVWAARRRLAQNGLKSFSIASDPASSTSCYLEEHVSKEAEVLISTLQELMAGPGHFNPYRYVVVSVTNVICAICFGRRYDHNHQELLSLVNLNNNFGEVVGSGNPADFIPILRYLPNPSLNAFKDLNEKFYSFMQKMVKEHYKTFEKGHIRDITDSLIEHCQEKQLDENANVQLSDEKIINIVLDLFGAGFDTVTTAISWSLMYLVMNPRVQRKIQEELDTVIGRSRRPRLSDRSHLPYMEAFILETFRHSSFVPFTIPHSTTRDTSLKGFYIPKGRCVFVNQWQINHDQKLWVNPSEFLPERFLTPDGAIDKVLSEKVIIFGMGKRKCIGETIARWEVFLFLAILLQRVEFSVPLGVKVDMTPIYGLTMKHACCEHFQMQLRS

Staphylococcus aureus [14] = assay: Antibacterial activity against methicillin-resistant Staphylococcus aureus infected in C57BL/6 mouse model assessed as reduction in bacterial dissemination from PLF to liver at 25 mg/kg, ip preadministered for 12 hrs followed by bacterial infection and measured after 24 hrs; format: functional, organism-based; settings: time 36.0 hrs
[15] = Toxicity in male C57BL/6 mouse assessed as change in fur condition at 1 to 100 mg/kg, ip measured after 7 days; format: organism-based; settings: in vivo, 168 h, dose 1-100 mg/kg, time 7 day
RAW264.7 [16] = assay: Induction of phagocytosis in mouse RAW264.7 cells assessed as upregulation of CD204 protein level by flow cytometric analysis; format: functional, cell-based
Staphylococcus aureus [17] = assay: Antibacterial activity against methicillin-resistant Staphylococcus aureus infected in macrophage-depleted mouse assessed as bacterial clearance in PLF at 25 mg/kg, ip pretreated with clodronate liposomes for 48 hrs followed by compound administration for 12 hrs and measured after 24 hrs of bacterial infection; format: functional, organism-based; settings: time 36.0 hrs
Staphylococcus aureus [18] = assay: Antibacterial activity against methicillin-resistant Staphylococcus aureus infected in CYP1A1 deficient mouse assessed as bacterial clearance in PLF at 25 mg/kg, ip pretreated for 12 hrs followed by bacterial infection for 24 hrs; format: functional, organism-based; settings: time 36.0 hrs
Staphylococcus aureus [19] = assay: Antibacterial activity against methicillin-resistant Staphylococcus aureus infected in C57BL/6 mouse model assessed as reduction in liver damage at 25 mg/kg, ip administered for 12 hrs by H and E staining based analysis; format: functional, organism-based
RAW264.7 [20] = assay: Induction of phagocytosis in mouse RAW264.7 cells assessed as upregulation of SR-A1 mRNA expression by qRT-PCR analysis; format: functional, cell-based
Staphylococcus aureus [21] = assay: Antibacterial activity against methicillin-resistant Staphylococcus aureus infected in C57BL/6 mouse model assessed as reduction in bacterial dissemination from PLF to blood at 25 mg/kg, ip preadministered for 12 hrs followed by bacterial infection and measured after 24 hrs; format: functional, organism-based; settings: time 36.0 hrs
Staphylococcus aureus [22] = assay: Antibacterial activity against methicillin-resistant Staphylococcus aureus infected in C57BL/6 mouse assessed as reduction in kidney damage at 25 mg/kg, ip administered for 12 hrs by H and E staining based analysis; format: functional, organism-based
RAW264.7 [23] = assay: Induction of phagocytosis in mouse RAW264.7 cells at 5 uM incubated for 12 hrs by flow cytometric analysis; format: functional, cell-based
RAW264.7 [24] = assay: Induction of phagocytosis in zymosan A stimulated mouse RAW264.7 cells assessed as upregulation of CD68 protein level at 5.0 uM incubated for 12 hrs by flow cytometric analysis; format: functional, cell-based

Row | SMILES | Activity (Acinetobacter baumannii) | Activity (Staphylococcus aureus [1]) | Activity (RAW264.7 [2]) | Activity (RAW264.7 [3]) | Activity [4] | Activity (Staphylococcus aureus [5]) | Activity (RAW264.7 [6]) | Activity (RAW264.7 [7]) | Activity (RAW264.7 [8]) | Activity (Mus musculus) | Activity (RAW264.7 [9]) | Activity [10] | Activity (Escherichia coli) | Activity (Staphylococcus aureus [11]) | Activity (Staphylococcus aureus [12]) | Activity (Staphylococcus aureus [13]) | fold change (FC) (Cytochrome P450 1A1) | Activity (Staphylococcus aureus [14]) | Activity [15] | Activity (RAW264.7 [16]) | also measured
1 | C#Cc1ccccc1/C=C/C(=O)c1ccc2c(c1)n(C)c(=O)n2C | Active | Active | Active | Active | Non-toxic | Active | Active | Active | Active | inactive | Active | Non-toxic | Active | Active | inactive | Active | 0.01 | Active | Non-toxic | Active | Activity (Staphylococcus aureus [17]): inactive; Activity (Staphylococcus aureus [18]): inactive; Activity (Staphylococcus aureus [19]): Active; Activity (RAW264.7 [20]): Active; Activity (Staphylococcus aureus [21]): Active; Activity (Staphylococcus aureus [22]): Active; Activity (RAW264.7 [23]): Active; Activity (RAW264.7 [24]): Active
2 | Cn1cc(/C=C/C(=O)c2ccc3c(c2)n(C)c(=O)n3C)c2ccccc21 | Active | Active | Active | Active | Non-toxic | Active | Active | Active | Active | inactive | Active | Non-toxic | Active | Active | inactive | Active | 0.09 | Active | Non-toxic | Active | Activity (Staphylococcus aureus [17]): inactive; Activity (Staphylococcus aureus [18]): inactive; Activity (Staphylococcus aureus [19]): Active; Activity (RAW264.7 [20]): Active; Activity (Staphylococcus aureus [21]): Active; Activity (Staphylococcus aureus [22]): Active; Activity (RAW264.7 [23]): Active; Activity (RAW264.7 [24]): Active
